Reference: patent US10745389B2, “HDAC6 selective inhibitors, preparation method therefor, and application thereof” (CSTONE PHARMACEUTICALS (SUZHOU) CO., LTD., priority 2017, dated 2020)

System: human myeloma MM.1S cells subcutaneous xenograft tumor
Test: In vivo pharmacodynamic study with Ixazomib, MM.1S subcutaneous xenograft in CB-17 SCID model
Parameters: species or system CB-17 SCID mouse
Details: Ixazomib 4 mg/kg administered alone, 21st day
Protocol: The purpose of this experiment was to investigate the in vivo therapeutic effect of the compounds of the present invention in combination with proteasome inhibitor Ixazomib on human myeloma MM.1S cell subcutaneous xenografts in the CB-17 SCID model.
Human myeloma MM. S cells were cultured in vitro in a single layer, culture environment was RPMI-1640 medium (supplier: Gibco; Cat. No. 22400-089) supplemented with 10% fetal bovine serum, 37° C. 5% CO2 incubator. Then passage was done by routinely digested with trypsin-EDTA twice a week. When the cell saturation rate reached 80%-90%, the cells were collected, counted, and inoculated.
0.2 mL of 5×10^6 MM.1S cells were subcutaneously inoculated into the right back of each mouse (Beijing Weitong Lihua Biotechnology Co., Ltd., female, 6-8 weeks old) (PBS: Matrigel=1:1)). Administration by groups was initiated when the average tumor volume reached 100-150 mm^3.
Animals were monitored daily for health and mortality, routine tests includes observations of tumor growth and drug treatment effects on animal performance, such as behavioral activities, food intake (visual inspection only), weight change (measured every other day), appearance signs or other abnormal conditions. The number of animal deaths and side effects in the group were recorded based on the number of animals in each group.
The experimental index is to investigate whether tumor growth is inhibited, delayed or cured. Tumor diameters were measured with vernier calipers three times a week. The tumor volume is calculated by: V=0.5a×b^2, where a and b represent the long and short diameters of the tumor, respectively.
The antitumor effect of the compound was evaluated by TGI (%) or relative tumor growth rate T/C (%). TGI (%), reflecting the tumor growth inhibition rate. […]

SMILES: CC(C)C[C@H](NC(=O)CNC(=O)c1cc(Cl)ccc1Cl)B(O)O [Ixazomib]
- tumor volume: 916 mm^3
- T/C (vs solvent control): 34.97%
- TGI (vs solvent control): 68.65%
